Laboratory results taken from patent publication US9708314B2, “Heterocyclic amide compound” (NISSAN CHEMICAL INDUSTRIES, LTD., priority 2013, dated 2017).

What was measured:
Type in all cases: in vivo
[1] = test system: Echinochloa oryzacola Vasing.; assay: Test Example 1: herbicidal activity, application before weed generation in submerged conditions; settings: Application herbicide amount 320 g/ha; Seventeenth Table
Procedure, shortened: (§1)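 Pre-emergence application to water surface of submerged pots (4 cm depth, alluvial soil) on sowing day, with 2.5-leaf rice transplanted; emulsion diluted to g/ha rates. Grown in greenhouse at 25–30 °C; 0–5 herbicidal/crop-effect score after three weeks.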

[2] = test system: Monochoria vaginalis; assay: as above; settings: Application herbicide amount 320 g/ha; Seventeenth Table
Procedure, shortened: as §1

[3] = test system: Scirpus juncoides; assay: as above; settings: Application herbicide amount 320 g/ha; Seventeenth Table
Procedure, shortened: as §1

[4] = test system: transplanted Oryza sativa; assay: Test Example 1: effect on crop, application before weed generation in submerged conditions; settings: Application herbicide amount 320 g/ha; Seventeenth Table
Procedure, shortened: as §1

[5] = test system: Cyperus difformis; assay: Test Example 3: herbicidal effect by application to foliage (Wagner pot, water depth 0.1-0.5 cm); settings: Nineteenth Table; application to foliage; application herbicide amount 320 g/ha
Procedure, shortened: (§2)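 Post-emergence foliar application at a stated g/ha rate to plants grown 14 days from seed in alluvial soil, greenhouse 25–30 °C. Visual score after 3 weeks: 0 (≤5% effect) through 5 (≥90%).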

[6] = test system: Echinochloa crus-galli var. crus-galli; assay: as above; settings: Nineteenth Table; application to foliage; application herbicide amount 320 g/ha
Procedure, shortened: as §2

[7] = test system: Leptochloa chinensis; assay: as above; settings: Nineteenth Table; application to foliage; application herbicide amount 320 g/ha
Procedure, shortened: as §2

[8] = test system: directly sowed Oryza sativa; assay: Test Example 3: effect on crop by application to foliage (Wagner pot, water depth 0.1-0.5 cm); settings: Nineteenth Table; application to foliage; application herbicide amount 320 g/ha
Procedure, shortened: as §2

[9] = test system: Setaria viridis; assay: Test Example 4: herbicidal effect by application to foliage (diluvial soil, plastic box); settings: for G (Setaria viridis) herbicidal effect grade: foliage application; for G: herbicidal effect on Setaria viridis: application to foliage, application herbicide amount 320 g/ha
Procedure, shortened: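 Plants were grown in sterilized diluvial soil in a greenhouse at 25-30° C for 14 days, then sprayed on stems and leaves with water-diluted emulsion formulation at set rates in g/ha. Weed control and crop injury were scored 3 weeks after treatment on a 0-5 herbicidal-ratio scale, from 0 (≤5%) to 5 (≥90%).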

[10] = Application herbicide amount 320 g/ha

SMILES	A: Echinochloa oryzicola Vasing. (herbicidal effect grade) [1]	C: Monochoria vaginalis (herbicidal effect grade) [2]	B: Scirpus juncoides (herbicidal effect grade) [3]	a: transplanted Oryza sativa (effect on crop grade) [4]	E (herbicidal effect grade) [5]	H (herbicidal effect grade) [6]	D (herbicidal effect grade) [7]	b (effect on crop grade) [8]	G (Setaria viridis) herbicidal effect grade [9, 10]	G (Setaria viridis) herbicidal effect grade ([9]; 320 g/ha)	G: herbicidal effect on Setaria viridis [9]
Cc1nnc(NC(=O)c2ccc(C(F)(F)F)n3c(SCC4CCCO4)nnc23)o1 (stereo not drawn) [1-116]	5 (Herbicidal ratio of 90% or more (almost completely withered))	2 (Herbicidal ratio of 20% or more and less than 40%)	4 (Herbicidal ratio of 70% or more and less than 90%)	0 (Herbicidal ratio of 5% or less (almost no effect))	0 (Herbicidal ratio of 5% or less (almost no effect))	4 (Herbicidal ratio of 70% or more and less than 90%)	4 (Herbicidal ratio of 70% or more and less than 90%)	0 (Herbicidal ratio of 5% or less (almost no effect))	4 (Herbicidal ratio of 70% or more and less than 90%)	–	–
Cc1nnc(NC(=O)c2ccc(C(F)(F)F)n3c(SCc4ccccc4)nnc23)o1 [1-113]	4 (Herbicidal ratio of 70% or more and less than 90%)	2 (Herbicidal ratio of 20% or more and less than 40%)	3 (Herbicidal ratio of 40% or more and less than 70%)	0 (Herbicidal ratio of 5% or less (almost no effect))	3 (Herbicidal ratio of 40% or more and less than 70%)	4 (Herbicidal ratio of 70% or more and less than 90%)	3 (Herbicidal ratio of 40% or more and less than 70%)	0 (Herbicidal ratio of 5% or less (almost no effect))	0 (Herbicidal ratio of 5% or less (almost no effect))	–	–
COCCNc1nnc2c(C(=O)Nc3nnc(C)o3)ccc(C(F)(F)F)n12 [1-109]	0 (Herbicidal ratio of 5% or less (almost no effect))	0 (Herbicidal ratio of 5% or less (almost no effect))	2 (Herbicidal ratio of 20% or more and less than 40%)	0 (Herbicidal ratio of 5% or less (almost no effect))	3 (Herbicidal ratio of 40% or more and less than 70%)	5 (Herbicidal ratio of 90% or more (almost completely withered))	5 (Herbicidal ratio of 90% or more (almost completely withered))	2 (Herbicidal ratio of 20% or more and less than 40%)	3 (Herbicidal ratio of 40% or more and less than 70%)	–	–
Cn1nnnc1NC(=O)c1ccc(C(F)(F)F)n2c(C[S+](C)[O-])nnc12 (stereo not drawn) [2-033]	5 (Herbicidal ratio of 90% or more (almost completely withered))	5 (Herbicidal ratio of 90% or more (almost completely withered))	4 (Herbicidal ratio of 70% or more and less than 90%)	4 (Herbicidal ratio of 70% or more and less than 90%)	5 (Herbicidal ratio of 90% or more (almost completely withered))	5 (Herbicidal ratio of 90% or more (almost completely withered))	5 (Herbicidal ratio of 90% or more (almost completely withered))	5 (Herbicidal ratio of 90% or more (almost completely withered))	–	5 (Herbicidal ratio of 90% or more (almost completely withered))	–
Cn1nnnc1NC(=O)c1ccc(C(F)(F)F)n2c(COCC(F)(F)F)nnc12 [2-015]	5 (Herbicidal ratio of 90% or more (almost completely withered))	5 (Herbicidal ratio of 90% or more (almost completely withered))	5 (Herbicidal ratio of 90% or more (almost completely withered))	1 (Herbicidal ratio of 5% or more and less than 20%)	5 (Herbicidal ratio of 90% or more (almost completely withered))	5 (Herbicidal ratio of 90% or more (almost completely withered))	5 (Herbicidal ratio of 90% or more (almost completely withered))	4 (Herbicidal ratio of 70% or more and less than 90%)	–	–	4 (Herbicidal ratio of 70% or more and less than 90%)
CC(=O)CSc1nnc2c(C(=O)Nc3nnc(C)o3)ccc(C(F)(F)F)n12 [1-125]	0 (Herbicidal ratio of 5% or less (almost no effect))	1 (Herbicidal ratio of 5% or more and less than 20%)	3 (Herbicidal ratio of 40% or more and less than 70%)	0 (Herbicidal ratio of 5% or less (almost no effect))	3 (Herbicidal ratio of 40% or more and less than 70%)	5 (Herbicidal ratio of 90% or more (almost completely withered))	4 (Herbicidal ratio of 70% or more and less than 90%)	1 (Herbicidal ratio of 5% or more and less than 20%)	1 (Herbicidal ratio of 5% or more and less than 20%)	–	–
CCC(CC)c1nnc2c(C(=O)Nc3nnnn3C)ccc(C(F)(F)F)n12 [2-006]	5 (Herbicidal ratio of 90% or more (almost completely withered))	5 (Herbicidal ratio of 90% or more (almost completely withered))	5 (Herbicidal ratio of 90% or more (almost completely withered))	4 (Herbicidal ratio of 70% or more and less than 90%)	5 (Herbicidal ratio of 90% or more (almost completely withered))	5 (Herbicidal ratio of 90% or more (almost completely withered))	5 (Herbicidal ratio of 90% or more (almost completely withered))	5 (Herbicidal ratio of 90% or more (almost completely withered))	–	–	5 (Herbicidal ratio of 90% or more (almost completely withered))
COc1ccc(CSc2nnc3c(C(=O)Nc4nnc(C)o4)ccc(C(F)(F)F)n23)cc1 [1-114]	3 (Herbicidal ratio of 40% or more and less than 70%)	0 (Herbicidal ratio of 5% or less (almost no effect))	2 (Herbicidal ratio of 20% or more and less than 40%)	0 (Herbicidal ratio of 5% or less (almost no effect))	2 (Herbicidal ratio of 20% or more and less than 40%)	4 (Herbicidal ratio of 70% or more and less than 90%)	4 (Herbicidal ratio of 70% or more and less than 90%)	0 (Herbicidal ratio of 5% or less (almost no effect))	0 (Herbicidal ratio of 5% or less (almost no effect))	–	–
CCOc1nnc2c(C(=O)Nc3nnco3)ccc(C(F)(F)F)n12 [1-112]	3 (Herbicidal ratio of 40% or more and less than 70%)	2 (Herbicidal ratio of 20% or more and less than 40%)	3 (Herbicidal ratio of 40% or more and less than 70%)	0 (Herbicidal ratio of 5% or less (almost no effect))	1 (Herbicidal ratio of 5% or more and less than 20%)	3 (Herbicidal ratio of 40% or more and less than 70%)	2 (Herbicidal ratio of 20% or more and less than 40%)	0 (Herbicidal ratio of 5% or less (almost no effect))	0 (Herbicidal ratio of 5% or less (almost no effect))	–	–
